Reference: patent US9834564B2, “Substituted quinolines as PDE-10 inhibitors” (priority 2010, dated 2017)

Columns and labels:
[1] = molecular target: recombinant human PDE-10 enzyme (PDE-10A) (Homo sapiens (Human), UniProt Q9Y233); experiment: IMAP PDE Fluorescence Polarization assay, human PDE-10 inhibition (enzyme assay); format: biochemical; settings: recombinant human PDE-10, fluorescein-labeled cAMP/cGMP substrate, 40 min at 37° C.
Method: In one embodiment, the compounds provided herein were assayed for their ability to inhibit human PDE-10A. In one embodiment, the activities of the compounds were determined using the Molecular Devices IMAP PDE Fluorescence Polarization assay using recombinant human PDE-10 enzyme expressed in a baculoviral system. Briefly, 10 μL of a compound (0.2 nM-20 μM) was added to either a 96-well half area black plate or a 384-well black plate along with 10 μL of Fluorescein-labeled cAMP/cGMP substrate as per manufacturer's instructions and 10 μL of PDE enzyme (activity 0.1 U). Following a 40-minute incubation at 37° C., 60 μL of IMAP binding reagent was added. […] The data was analyzed using Prism Software (GraphPad Inc, San Diego, Calif.).

[2] = molecular target: HEK293 cells over-expressing PDE-10A (Homo sapiens (Human), UniProt Q9Y233); experiment: whole cell PDE-10 assay, intracellular cGMP in HEK293 cells over-expressing PDE-10A; format: cell-based; settings: concentration elevating intracellular cyclic nucleotide 300% above baseline; HEK293 over-expressing PDE-10A, 30 min compound, 200 μM sodium nitroprusside 2 min
Chain of HEK293 cells over-expressing PDE-10A (Q9Y233 whole entry): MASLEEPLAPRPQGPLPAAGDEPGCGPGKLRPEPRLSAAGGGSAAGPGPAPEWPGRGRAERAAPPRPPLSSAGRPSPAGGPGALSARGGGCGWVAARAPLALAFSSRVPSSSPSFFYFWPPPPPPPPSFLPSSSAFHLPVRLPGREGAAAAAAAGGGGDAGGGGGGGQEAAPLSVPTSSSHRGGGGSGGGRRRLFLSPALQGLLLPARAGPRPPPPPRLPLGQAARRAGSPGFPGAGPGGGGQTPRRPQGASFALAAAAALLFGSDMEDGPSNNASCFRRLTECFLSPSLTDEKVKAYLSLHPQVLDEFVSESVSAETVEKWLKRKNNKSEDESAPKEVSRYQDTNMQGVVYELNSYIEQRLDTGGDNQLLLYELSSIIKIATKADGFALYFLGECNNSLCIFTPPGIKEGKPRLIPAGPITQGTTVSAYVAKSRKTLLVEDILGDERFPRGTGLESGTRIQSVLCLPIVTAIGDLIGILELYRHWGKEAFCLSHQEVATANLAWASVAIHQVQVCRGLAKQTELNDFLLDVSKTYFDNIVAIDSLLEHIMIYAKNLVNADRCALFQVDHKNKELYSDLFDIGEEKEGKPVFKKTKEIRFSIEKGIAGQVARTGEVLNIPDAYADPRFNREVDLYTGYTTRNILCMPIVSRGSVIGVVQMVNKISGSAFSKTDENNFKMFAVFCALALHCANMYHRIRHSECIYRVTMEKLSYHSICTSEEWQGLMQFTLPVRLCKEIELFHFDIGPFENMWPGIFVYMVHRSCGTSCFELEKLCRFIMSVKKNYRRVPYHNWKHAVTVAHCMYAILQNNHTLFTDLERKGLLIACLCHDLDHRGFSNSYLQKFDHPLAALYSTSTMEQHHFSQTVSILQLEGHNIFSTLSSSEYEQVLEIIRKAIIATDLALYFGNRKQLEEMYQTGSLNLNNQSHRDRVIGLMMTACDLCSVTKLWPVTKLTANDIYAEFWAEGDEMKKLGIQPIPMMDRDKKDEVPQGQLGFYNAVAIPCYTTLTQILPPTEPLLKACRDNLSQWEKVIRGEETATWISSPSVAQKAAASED

Chain of recombinant human PDE-10 enzyme (PDE-10A) (Q9Y233 whole entry): as above

O=c1[nH]c(CCc2nc(-c3cccc4cccnc34)c[nH]2)nc2ccccc12 [Compound 58]
IC50 [1]: 500 to 1000 nM
PDE-10 EC300 (μM) [2]: ++ (1<IC50 or EC300<10 μM ++)

O=c1[nH]c(CCc2nc(-c3ccccc3F)c[nH]2)nc2ccccc12 [Compound 59]
IC50 [1]: < 500 nM
PDE-10 EC300 (μM) [2]: ++ (1<IC50 or EC300<10 μM ++)

Cn1cc(-c2ccco2)nc1CCc1ccc2ccccc2n1 [Compound 39]
IC50 [1]: < 500 nM
PDE-10 EC300 (μM) [2]: ++++ (IC50 or EC300<0.5 μM ++++)

Cn1cc(-c2ccsc2)nc1CCc1ccc2ccccc2n1 [Compound 40]
IC50 [1]: < 500 nM
PDE-10 EC300 (μM) [2]: ++++ (IC50 or EC300<0.5 μM ++++)

O=c1[nH]c(CCc2nc(-c3ccsc3)c[nH]2)nc2ccccc12 [Compound 64]
IC50 [1]: < 500 nM
PDE-10 EC300 (μM) [2]: ++++ (IC50 or EC300<0.5 μM ++++)

Cn1cc(-c2ccccc2F)nc1CCc1ccc2ccccc2n1 [Compound 42]
IC50 [1]: < 500 nM
PDE-10 EC300 (μM) [2]: ++++ (IC50 or EC300<0.5 μM ++++)

Cn1cc(-c2ccccc2F)nc1CCc1cnc2ccccc2n1 [Compound 48]
IC50 [1]: < 500 nM
PDE-10 EC300 (μM) [2]: ++++ (IC50 or EC300<0.5 μM ++++)

Fc1cccc(-c2c[nH]c(CCc3cnc4ccccc4n3)n2)c1 [Compound 76]
IC50 [1]: < 500 nM
PDE-10 EC300 (μM) [2]: ++++ (IC50 or EC300<0.5 μM ++++)

Cn1cc(-c2cccc(F)c2)nc1CCc1cnc2ccccc2n1 [Compound 49]
IC50 [1]: < 500 nM
PDE-10 EC300 (μM) [2]: ++++ (IC50 or EC300<0.5 μM ++++)

O=c1[nH]c(CCc2nc(-c3ccc(F)cc3)c[nH]2)nc2ccccc12 [Compound 60]
IC50 [1]: 500 to 1000 nM
PDE-10 EC300 (μM) [2]: ++ (1<IC50 or EC300<10 μM ++)

Cc1ncc(C)n2nc(CCc3cnc4ccccc4n3)nc12 [Compound 134]
IC50 [1]: < 500 nM
PDE-10 EC300 (μM) [2]: ++ (1<IC50 or EC300<10 μM ++)

Fc1cccc(-c2c[nH]c(CCc3ccc4ccccc4n3)n2)c1 [Compound 70]
IC50 [1]: < 500 nM
PDE-10 EC300 (μM) [2]: ++ (1<IC50 or EC300<10 μM ++)

Fc1ccccc1-c1c[nH]c(CCc2cnc3ccccc3n2)n1 [Compound 75]
IC50 [1]: < 500 nM
PDE-10 EC300 (μM) [2]: ++++ (IC50 or EC300<0.5 μM ++++)

Cn1cc(-c2cccnc2)nc1CCc1cnc2ccccc2n1 [Compound 51]
IC50 [1]: < 500 nM
PDE-10 EC300 (μM) [2]: ++ (1<IC50 or EC300<10 μM ++)

Cc1ccc2nc(CCc3nc4c5cccnc5ccn4c3C)ccc2n1 [Compound 202]
IC50 [1]: < 500 nM
PDE-10 EC300 (μM) [2]: ++++ (IC50 or EC300<0.5 μM ++++)

Cn1cc(-c2cccc(F)c2)nc1CCc1ccc2ccccc2n1 [Compound 43]
IC50 [1]: < 500 nM
PDE-10 EC300 (μM) [2]: ++ (1<IC50 or EC300<10 μM ++)

Cn1c(CCc2cnc3ccccc3n2)nc2c3c(ccc21)OCCO3 [Compound 211]
IC50 [1]: < 500 nM
PDE-10 EC300 (μM) [2]: ++++ (IC50 or EC300<0.5 μM ++++)

Cc1nc(CCc2nc3c4cccnc4ccc3n2C)nc2c1CCC2 [Compound 210]
IC50 [1]: < 500 nM
PDE-10 EC300 (μM) [2]: ++++ (IC50 or EC300<0.5 μM ++++)

c1ccc(CCc2nc(-c3ccccc3)c[nH]2)cc1 [Compound 31]
IC50 [1]: 1000 to 10000 nM
PDE-10 EC300 (μM) [2]: + (IC50 or EC300>10 μM +)

Cc1ncc(C)n2nc(CCc3ccc4ccc5ncccc5c4n3)nc12 [Compound 142]
IC50 [1]: < 500 nM
PDE-10 EC300 (μM) [2]: ++++ (IC50 or EC300<0.5 μM ++++)

Cn1cc(-c2ccccc2)nc1CCc1nc2ccccc2c(=O)[nH]1 [Compound 8]
IC50 [1]: > 10000 nM
PDE-10 EC300 (μM) [2]: ++++ (IC50 or EC300<0.5 μM ++++)

c1ccc(-c2c[nH]c(CCc3cnc4ccncc4n3)n2)cc1 [Compound 17]
IC50 [1]: < 500 nM
PDE-10 EC300 (μM) [2]: +++ (0.5<IC50 or EC300<1 μM +++)

Cn1c(CCc2ccc3ncccc3n2)nc2c3cccnc3ccc21 [Compound 204]
IC50 [1]: < 500 nM
PDE-10 EC300 (μM) [2]: ++++ (IC50 or EC300<0.5 μM ++++)

c1ccc(-c2c[nH]c(CCc3cc4ccccc4cn3)n2)cc1 [Compound 36]
IC50 [1]: < 500 nM
PDE-10 EC300 (μM) [2]: ++ (1<IC50 or EC300<10 μM ++)

O=c1oc(CCc2nc(-c3ccccc3)c[nH]2)nc2ccccc12 [Compound 82]
IC50 [1]: 1000 to 10000 nM
PDE-10 EC300 (μM) [2]: + (IC50 or EC300>10 μM +)

O=c1[nH]c(CCc2ncc(-c3ccccc3)o2)nc2ccccc12 [Compound 110]
IC50 [1]: > 10000 nM
PDE-10 EC300 (μM) [2]: + (IC50 or EC300>10 μM +)

c1cnc2c(c1)ccn1nc(CCc3cnc4ccccc4n3)nc21 [Compound 157]
IC50 [1]: < 500 nM

Cc1ncc(C)c2nc(CCc3nc4c5cccnc5ccn4n3)ccc12 [Compound 167]
IC50 [1]: < 500 nM

O=c1[nH]c(/C=C/c2nc3ccccc3[nH]2)nc2ccccc12 [Compound 22]
IC50 [1]: > 10000 nM

Cn1c(CCc2nc3ccccc3c(=O)[nH]2)nc2ccccc21 [Compound 24]
IC50 [1]: > 10000 nM

Cn1c(/C=C/c2nc3ccccc3c(=O)[nH]2)nc2ccccc21 [Compound 23]
IC50 [1]: 1000 to 10000 nM

Cc1ncc(C)n2nc(CCc3ccc4ncccc4n3)nc12 [Compound 140]
IC50 [1]: < 500 nM

Cc1ccc2ccc(CCc3cn4ccc5ncccc5c4n3)nc2n1 [Compound 196]
IC50 [1]: 500 to 1000 nM

c1cnc2c(c1)ccc1ccc(CCc3cnc4ccccc4n3)nc12 [Compound 158]
IC50 [1]: < 500 nM

c1cnc2nc(CCc3nc4c5cccnc5ccn4n3)ccc2c1 [Compound 177]
IC50 [1]: 500 to 1000 nM

Cc1c(CCc2ccc3cc(C(F)(F)F)cnc3n2)nc2c3cccnc3ccn12 [Compound 185]
IC50 [1]: 500 to 1000 nM

Cc1ncc(C)c2nc(CCc3nc4c(ccc5ncccc54)[nH]3)ccc12 [Compound 166]
IC50 [1]: < 500 nM

c1ccc2nc(CCc3ccc4ccc5cccnc5c4n3)ccc2c1 [Compound 159]
IC50 [1]: < 500 nM

c1ccc(-c2c[nH]c(CNc3cnc4ccccc4n3)n2)cc1 [Compound 121]
IC50 [1]: 1000 to 10000 nM

Cc1ccnc2ccc(CCc3nc4c5cccnc5ccn4c3C)nc12 [Compound 187]
IC50 [1]: < 500 nM

Cn1cc(-c2ccncc2)nc1CCc1cnc2ccccc2n1 [Compound 47]
IC50 [1]: > 10000 nM

Cn1c(CCc2cccc(-c3ccccn3)n2)nc2c3cccnc3ccc21 [Compound 206]
IC50 [1]: 500 to 1000 nM

Cc1ccc2ncc(CCc3nc4c(C)ncc(C)n4n3)nc2c1C [Compound 135]
IC50 [1]: < 500 nM

Cc1cc2ncccc2c2nc(CCc3ccc4ccccc4n3)n(C)c12 [Compound 170]
IC50 [1]: < 500 nM

c1ccc2nc(CCc3nc4c5ncccc5ccn4n3)ccc2c1 [Compound 153]
IC50 [1]: < 500 nM

O=c1[nH]c(/C=C/c2ccc(-c3ccccc3)s2)nc2ccccc12 [Compound 38]
IC50 [1]: > 10000 nM

Cc1ncc(C)n2nc(CCc3ccc4ccc5c(c4n3)NCCC5)nc12 [Compound 137]
IC50 [1]: < 500 nM

c1ccc(-c2c[nH]c(CCc3ncc4ccccc4n3)n2)cc1 [Compound 13]
IC50 [1]: < 500 nM

Cc1c(CCc2ccc3cccnc3n2)nc2c3cccnc3ccn12 [Compound 197]
IC50 [1]: < 500 nM

Cc1nc2ccccc2nc1CCc1nc2ccccc2[nH]1 [Compound 106]
IC50 [1]: 500 to 1000 nM

c1ccc2nc(CCc3cn4ccc5ncccc5c4n3)cnc2c1 [Compound 189]
IC50 [1]: < 500 nM

c1ccc(-c2cccc(CCc3cnc4ccccc4n3)n2)cc1 [Compound 81]
IC50 [1]: > 10000 nM

Cn1c(CCc2cnc3ccccc3n2)nc2c3c(ccc21)NCCC3 [Compound 192]
IC50 [1]: < 500 nM

O=c1[nH]c(CCc2nc(-c3ccccc3)cs2)nc2ccccc12 [Compound 116]
IC50 [1]: < 500 nM

Cn1cc(-c2ccccc2)nc1CCc1cccc(-c2ccncc2)n1 [Compound 152]
IC50 [1]: 1000 to 10000 nM

Cc1ccc(-c2cn(C)c(CCc3cnc4ccccc4n3)n2)cn1 [Compound 173]
IC50 [1]: > 10000 nM

c1cnc2c(c1)ccc1ccc(CCc3nc4ccccn4n3)nc12 [Compound 156]
IC50 [1]: < 500 nM

c1ccc(-c2c[nH]c(CCc3ccc4ccccc4c3)n2)cc1 [Compound 35]
IC50 [1]: > 10000 nM

Cc1ccc(C)c2nc(CCc3nc4c5cccnc5ccc4n3C)cnc12 [Compound 88]
IC50 [1]: < 500 nM

O=c1[nH]c(CCc2cc(-c3ccccc3)no2)nc2ccccc12 [Compound 113]
IC50 [1]: > 10000 nM

Cc1ncc(C)n2nc(CCc3ccc4ccncc4n3)nc12 [Compound 139]
IC50 [1]: 1000 to 10000 nM

O=c1[nH]c(CCc2nc(-c3cccc4ccccc34)c[nH]2)nc2ccccc12 [Compound 55]
IC50 [1]: 1000 to 10000 nM

O=c1[nH]c(CCc2nc3ccccc3s2)nc2ccccc12 [Compound 112]
IC50 [1]: > 10000 nM

Cn1c(CCc2ccc3ccccc3n2)nc2c3ccccc3ccc21 [Compound 90]
IC50 [1]: < 500 nM

c1ccc(-c2csc(CCc3cnc4ccccc4n3)n2)cc1 [Compound 108]
IC50 [1]: < 500 nM

Cn1cc(-c2ccccc2)nc1CCc1ncc2ccccc2n1 [Compound 18]
IC50 [1]: < 500 nM

Oc1cccc2nc(CCc3cnc4ccccc4n3)[nH]c12 [Compound 99]
IC50 [1]: 500 to 1000 nM

O=c1[nH]c(CCc2nc(-c3ccccc3)c(-c3ccccc3)o2)nc2ccccc12 [Compound 111]
IC50 [1]: 1000 to 10000 nM

Cn1c(CCc2cnc3c(F)ccc(F)c3n2)nc2c3cccnc3ccc21 [Compound 148]
IC50 [1]: < 500 nM

FC(F)(F)Oc1ccc2[nH]c(CCc3cnc4ccccc4n3)nc2c1 [Compound 105]
IC50 [1]: 1000 to 10000 nM

Cc1cnc(C)c(CCc2nc(-c3ccccc3)cn2C)n1 [Compound 172]
IC50 [1]: < 500 nM

C(=C\c1cccs1)/c1nc(-c2ccccc2)c[nH]1 [Compound 28]
IC50 [1]: > 10000 nM

Cn1c(CCc2cnc3cccc(Cl)c3n2)nc2c3cccnc3ccc21 [Compound 191]
IC50 [1]: < 500 nM

c1ccc2nc(CCc3cnc4ccccc4n3)cnc2c1 [Compound 118]
IC50 [1]: 1000 to 10000 nM

c1cncc(-c2c[nH]c(CCc3cnc4ccccc4n3)n2)c1 [Compound 78]
IC50 [1]: < 500 nM
